In one test the target is Cytochrome P450 2C19 (Homo sapiens, UniProt P33261). Put plainly: Cytochrome panel assay with activity outcomes. Panel member name: p450-cyp2c19 Compounds with AC50 equal or less than 10 uM are considered active. Type of test: functional. The settings on record: read-out: AC50.
The next test concerns the target Cytochrome P450 2D6 (Homo sapiens, UniProt P10635).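 Further: CYP2D6 member of a cytochrome P450 panel assay.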
The target of test [1] is Voltage-gated inwardly rectifying potassium channel KCNH2 (Homo sapiens, UniProt Q12809). The settings on record: Potency.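 Further: confirmatory quantitative high-throughput screen measuring inhibition of hERG channel activity.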
Another test addresses Cytochrome P450 3A4 (Homo sapiens, UniProt P08684). The settings on record: Potency.
For test [2], the target named is T1, COUP transcription factor 2 (Homo sapiens, UniProt P24468).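 Further: HEK293 cells transiently cotransfected with COUP-TFII expression vector and reporter; luciferase reporter luminescence driven by COUP-TFII from the pX2-168 reporter plasmid.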
T1 sequence (P24468 whole entry): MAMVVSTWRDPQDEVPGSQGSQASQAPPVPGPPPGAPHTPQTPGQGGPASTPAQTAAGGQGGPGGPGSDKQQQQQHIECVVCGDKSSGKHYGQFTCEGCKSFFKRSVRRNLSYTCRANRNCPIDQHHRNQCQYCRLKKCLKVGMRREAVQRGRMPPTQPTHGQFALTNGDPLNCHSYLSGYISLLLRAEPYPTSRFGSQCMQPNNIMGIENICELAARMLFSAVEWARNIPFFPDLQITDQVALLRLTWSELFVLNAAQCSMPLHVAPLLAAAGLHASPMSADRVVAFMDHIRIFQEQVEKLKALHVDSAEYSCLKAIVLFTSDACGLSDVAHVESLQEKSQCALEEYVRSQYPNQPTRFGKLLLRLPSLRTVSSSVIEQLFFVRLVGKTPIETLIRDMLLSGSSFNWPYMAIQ
Put plainly: Luminescence-based cell-based high throughput dose response assay to identify inhibitors of COUP-TFII (NR2F2). Type of test: functional.

A short description of test [3]: C. albicans growth with fluconazole, confirmation, fluorescence, retest (AID 2467). Type of test: functional, cell-based.
In a further test the test system is INS1. In words: beta cell apoptosis inhibitors, cytokine rescue, dose response, luminescence, retest (AID 449756).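 Further: cell death triggered by IL-1 beta plus TNF-alpha plus IFN-gamma mixture; protective hits raise ATP signal compared with cytokine alone wells.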 Type of test: functional, cell-based. The settings on record: Rattus norvegicus.
Test [4] in a line: cytotoxicity toward NIH3T3 fibroblasts, dose response, counter-screen, cell-based, ATP luminescence, mouse fibroblasts (AID 2010).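 Further: cells exposed to compound for about 90 hours before reading.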 Type of test: functional. (Counterscreens check selectivity or assay interference.)
Test [5] in a line: NIH-3T3 fibroblast cytotoxicity, dose response, cytotoxicity control, cell-based, fluorescence, Alamar Blue, secondary assay (AID 2327).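 Further: NIH-3T3 mouse fibroblasts cultured with fluconazole at 8 µg/mL.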 Type of test: functional.
Test [6] is described as follows: cytotoxicity in HEK-293T cells, dose response, cytotoxicity control for TCR NF-kB inhibitor project, luminescence, T-cell screen hits (AID 489026).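 Further: cells exposed to compound about 14 hours before the viability readout.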 The class given is functional, cell-based.
Test [7] deals with T2, Microphthalmia-associated transcription factor (Homo sapiens, UniProt O75030).
T2 sequence (O75030 whole entry): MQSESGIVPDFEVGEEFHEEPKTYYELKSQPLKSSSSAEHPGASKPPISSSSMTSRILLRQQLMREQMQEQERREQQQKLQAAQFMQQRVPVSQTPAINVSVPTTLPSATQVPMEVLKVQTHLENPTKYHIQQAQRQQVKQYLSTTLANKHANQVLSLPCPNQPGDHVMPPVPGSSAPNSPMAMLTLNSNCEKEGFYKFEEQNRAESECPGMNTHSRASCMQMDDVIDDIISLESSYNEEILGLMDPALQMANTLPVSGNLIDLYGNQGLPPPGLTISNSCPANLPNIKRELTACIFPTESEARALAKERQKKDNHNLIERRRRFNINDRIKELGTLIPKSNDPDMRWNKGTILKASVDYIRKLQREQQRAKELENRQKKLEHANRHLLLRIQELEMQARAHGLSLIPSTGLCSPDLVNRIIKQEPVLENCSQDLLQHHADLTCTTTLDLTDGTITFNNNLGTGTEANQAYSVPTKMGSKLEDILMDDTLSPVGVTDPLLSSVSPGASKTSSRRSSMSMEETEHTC
Put plainly: TRPM1 promoter luciferase signal decrease, dose response, MITF inhibitor project, cell-based, SK-MEL-5, cherry-picked, set 3 (AID 493073).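 Further: SK-MEL-5 melanoma cells with luciferase driven by the MITF target TRPM1 promoter.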 The class given is functional.

The target in test [8] is ATP-dependent molecular chaperone HSP82 (Candida albicans (strain WO-1) (Yeast), UniProt C4YTQ8). In words: loss of DOC-induced GRE-beta-galactosidase reporter signal, dose response, Hsp90 inhibitor project, S. cerevisiae, luminescence (AID 2400).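 Further: beta-galactosidase luminescence from glucocorticoid response element reporter as proxy for Hsp90 function; inhibitor potency where signal loss means Hsp90 inhibition.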 Type of test: functional, cell-based.
The nature of test [9]: inhibitors of intracellular T. cruzi replication, confirmation, NIH3T3 host cells, beta-gal luminescence (AID 2044).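 Further: intracellular parasites grown in NIH/3T3 mouse fibroblasts as host cells; luminescent beta-galactosidase reporter signal from transgenic T. cruzi replicating inside host cells; inhibitors lower the luminescence signal.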 The class given is functional, cell-based.
For test [10], the target named is Serine/threonine-protein phosphatase (Candida dubliniensis (strain CD36 / CBS 7987 / NCPF 3949 / NRRLY-17841) (Yeast), UniProt B9W6M3). Put plainly: calcineurin pathway inhibitors in yeast reporter, dose response, S. cerevisiae, CDRE-lacZ, luminescence, secondary (AID 2388).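 Further: yeast reporter cells carrying a calcineurin-responsive lacZ construct stimulated with calcium chloride; luminescent beta-galactosidase reporter signal in whole cells rather than isolated phosphatase activity; potency for inhibition where a drop in reporter signal means calcineurin blockade.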 Type of test: functional, cell-based.
Another test addresses Beta-galactosidase (Escherichia coli, UniProt Q8VNN2). In words: PubChem AID 485352. Type of test: functional.
Test [11] concerns the target T3, Type-1 angiotensin II receptor (Homo sapiens, UniProt P30556).
T3 sequence (P30556 whole entry): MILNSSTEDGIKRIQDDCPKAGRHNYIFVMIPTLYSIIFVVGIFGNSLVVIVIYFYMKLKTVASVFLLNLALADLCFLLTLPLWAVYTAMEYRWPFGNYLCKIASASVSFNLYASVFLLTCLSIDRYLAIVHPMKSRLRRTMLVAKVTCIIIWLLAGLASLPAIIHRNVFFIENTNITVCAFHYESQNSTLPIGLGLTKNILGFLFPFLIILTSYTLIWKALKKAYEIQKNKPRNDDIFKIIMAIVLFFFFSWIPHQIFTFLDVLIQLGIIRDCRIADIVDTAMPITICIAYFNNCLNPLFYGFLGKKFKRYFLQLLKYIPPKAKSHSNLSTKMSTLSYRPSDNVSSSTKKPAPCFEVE
In words: AT1 receptor antagonists, dose response, selectivity assay for APJ receptor antagonist project, cell-based, uHTS hits (AID 463214).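 Further: antagonist potency against angiotensin II stimulated AT1 response.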 Type of test: functional.

For test [12], the target named is Glyceraldehyde-3-phosphate dehydrogenase (Homo sapiens, UniProt P04406).
Test [13] has as its target T4, Dual specificity protein phosphatase 6 (Rattus norvegicus, UniProt Q64346).
T4 sequence (Q64346 whole entry): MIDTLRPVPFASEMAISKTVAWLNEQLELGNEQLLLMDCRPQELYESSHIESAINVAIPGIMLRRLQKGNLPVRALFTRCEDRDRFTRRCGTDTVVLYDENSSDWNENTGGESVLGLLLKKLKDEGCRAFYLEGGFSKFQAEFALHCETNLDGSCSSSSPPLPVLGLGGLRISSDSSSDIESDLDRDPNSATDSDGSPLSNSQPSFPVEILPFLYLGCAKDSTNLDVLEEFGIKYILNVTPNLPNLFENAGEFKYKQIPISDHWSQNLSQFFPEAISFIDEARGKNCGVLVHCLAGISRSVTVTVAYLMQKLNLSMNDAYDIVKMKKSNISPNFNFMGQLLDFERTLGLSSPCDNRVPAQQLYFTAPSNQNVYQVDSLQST

In test [14] the target is T4, Dual specificity protein phosphatase 6. Type of test: functional.
Test [15] concerns the target T5, Tyrosine-protein phosphatase non-receptor type 7 (Homo sapiens, UniProt P35236).
T5 sequence (P35236 whole entry): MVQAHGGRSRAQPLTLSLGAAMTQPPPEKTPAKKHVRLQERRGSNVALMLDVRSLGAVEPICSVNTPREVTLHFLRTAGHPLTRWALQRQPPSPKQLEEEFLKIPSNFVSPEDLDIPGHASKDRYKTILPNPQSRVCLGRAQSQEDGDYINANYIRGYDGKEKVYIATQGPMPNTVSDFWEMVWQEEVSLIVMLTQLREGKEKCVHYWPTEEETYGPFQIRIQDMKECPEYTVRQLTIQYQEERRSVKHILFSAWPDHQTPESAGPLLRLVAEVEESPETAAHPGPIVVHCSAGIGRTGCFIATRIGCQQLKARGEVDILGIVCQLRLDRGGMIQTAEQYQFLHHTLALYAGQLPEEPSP
The class given is functional.

Broadly, the AC50 is the concentration at which the activity in the assay is half-maximal. As usually defined, the IC50 is the concentration that inhibits the measured activity by half. What is called EC50 is the concentration giving half of the maximal effect.

“And” between values parts separate entries of the source, which are not always exact repeats. Identical values can stand only once. The source made the active and inactive calls.

Chain of Serine/threonine-protein phosphatase (B9W6M3 whole entry): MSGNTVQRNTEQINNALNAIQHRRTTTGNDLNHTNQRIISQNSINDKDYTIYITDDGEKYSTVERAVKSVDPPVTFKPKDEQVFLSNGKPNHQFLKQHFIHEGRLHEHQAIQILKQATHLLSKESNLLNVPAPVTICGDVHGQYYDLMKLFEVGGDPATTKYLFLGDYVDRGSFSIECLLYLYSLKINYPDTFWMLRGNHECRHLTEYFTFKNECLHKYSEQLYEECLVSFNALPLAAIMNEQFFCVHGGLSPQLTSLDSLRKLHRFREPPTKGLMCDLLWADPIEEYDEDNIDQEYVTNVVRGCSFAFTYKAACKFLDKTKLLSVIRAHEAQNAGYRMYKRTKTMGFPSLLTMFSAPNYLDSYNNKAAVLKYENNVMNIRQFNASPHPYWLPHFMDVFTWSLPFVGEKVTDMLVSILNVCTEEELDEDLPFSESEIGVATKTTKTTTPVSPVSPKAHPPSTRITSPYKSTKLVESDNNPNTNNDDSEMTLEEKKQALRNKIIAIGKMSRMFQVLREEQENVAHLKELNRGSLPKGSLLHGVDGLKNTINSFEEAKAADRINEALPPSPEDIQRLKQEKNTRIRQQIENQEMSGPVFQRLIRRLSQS
Chain of Cytochrome P450 3A4 (P08684 whole entry): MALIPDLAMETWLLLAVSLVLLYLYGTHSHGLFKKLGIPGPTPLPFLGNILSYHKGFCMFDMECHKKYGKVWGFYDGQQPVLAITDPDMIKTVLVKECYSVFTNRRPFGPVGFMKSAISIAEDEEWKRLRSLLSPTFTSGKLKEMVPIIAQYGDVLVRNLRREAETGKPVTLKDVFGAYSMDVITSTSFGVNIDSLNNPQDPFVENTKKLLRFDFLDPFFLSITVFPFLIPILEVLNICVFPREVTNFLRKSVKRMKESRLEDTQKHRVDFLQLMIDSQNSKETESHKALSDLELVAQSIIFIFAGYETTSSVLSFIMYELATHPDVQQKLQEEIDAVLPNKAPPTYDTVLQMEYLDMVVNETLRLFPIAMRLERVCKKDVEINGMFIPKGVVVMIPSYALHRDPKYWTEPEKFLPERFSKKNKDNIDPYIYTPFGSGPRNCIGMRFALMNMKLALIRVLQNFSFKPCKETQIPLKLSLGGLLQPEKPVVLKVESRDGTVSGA
Chain of ATP-dependent molecular chaperone HSP82 (C4YTQ8 whole entry): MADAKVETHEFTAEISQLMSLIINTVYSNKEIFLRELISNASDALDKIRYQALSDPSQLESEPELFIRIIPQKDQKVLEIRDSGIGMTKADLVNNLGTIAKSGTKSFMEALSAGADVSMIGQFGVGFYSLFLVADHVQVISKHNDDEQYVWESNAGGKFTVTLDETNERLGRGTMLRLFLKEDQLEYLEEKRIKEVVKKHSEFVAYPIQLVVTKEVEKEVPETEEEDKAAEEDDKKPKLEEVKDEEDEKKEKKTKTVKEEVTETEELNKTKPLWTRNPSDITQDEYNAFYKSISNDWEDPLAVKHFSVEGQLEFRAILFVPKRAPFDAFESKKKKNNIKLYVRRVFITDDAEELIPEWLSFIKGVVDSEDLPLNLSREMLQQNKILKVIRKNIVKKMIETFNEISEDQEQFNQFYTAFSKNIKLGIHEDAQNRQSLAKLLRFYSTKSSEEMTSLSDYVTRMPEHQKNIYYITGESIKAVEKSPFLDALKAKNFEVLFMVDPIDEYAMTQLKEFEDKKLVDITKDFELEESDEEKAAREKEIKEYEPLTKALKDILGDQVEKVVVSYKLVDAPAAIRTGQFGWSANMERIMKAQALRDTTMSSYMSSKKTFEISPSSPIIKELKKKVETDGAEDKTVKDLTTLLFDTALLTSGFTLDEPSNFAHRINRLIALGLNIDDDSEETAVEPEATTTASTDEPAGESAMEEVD
Chain of Voltage-gated inwardly rectifying potassium channel KCNH2 (Q12809 whole entry): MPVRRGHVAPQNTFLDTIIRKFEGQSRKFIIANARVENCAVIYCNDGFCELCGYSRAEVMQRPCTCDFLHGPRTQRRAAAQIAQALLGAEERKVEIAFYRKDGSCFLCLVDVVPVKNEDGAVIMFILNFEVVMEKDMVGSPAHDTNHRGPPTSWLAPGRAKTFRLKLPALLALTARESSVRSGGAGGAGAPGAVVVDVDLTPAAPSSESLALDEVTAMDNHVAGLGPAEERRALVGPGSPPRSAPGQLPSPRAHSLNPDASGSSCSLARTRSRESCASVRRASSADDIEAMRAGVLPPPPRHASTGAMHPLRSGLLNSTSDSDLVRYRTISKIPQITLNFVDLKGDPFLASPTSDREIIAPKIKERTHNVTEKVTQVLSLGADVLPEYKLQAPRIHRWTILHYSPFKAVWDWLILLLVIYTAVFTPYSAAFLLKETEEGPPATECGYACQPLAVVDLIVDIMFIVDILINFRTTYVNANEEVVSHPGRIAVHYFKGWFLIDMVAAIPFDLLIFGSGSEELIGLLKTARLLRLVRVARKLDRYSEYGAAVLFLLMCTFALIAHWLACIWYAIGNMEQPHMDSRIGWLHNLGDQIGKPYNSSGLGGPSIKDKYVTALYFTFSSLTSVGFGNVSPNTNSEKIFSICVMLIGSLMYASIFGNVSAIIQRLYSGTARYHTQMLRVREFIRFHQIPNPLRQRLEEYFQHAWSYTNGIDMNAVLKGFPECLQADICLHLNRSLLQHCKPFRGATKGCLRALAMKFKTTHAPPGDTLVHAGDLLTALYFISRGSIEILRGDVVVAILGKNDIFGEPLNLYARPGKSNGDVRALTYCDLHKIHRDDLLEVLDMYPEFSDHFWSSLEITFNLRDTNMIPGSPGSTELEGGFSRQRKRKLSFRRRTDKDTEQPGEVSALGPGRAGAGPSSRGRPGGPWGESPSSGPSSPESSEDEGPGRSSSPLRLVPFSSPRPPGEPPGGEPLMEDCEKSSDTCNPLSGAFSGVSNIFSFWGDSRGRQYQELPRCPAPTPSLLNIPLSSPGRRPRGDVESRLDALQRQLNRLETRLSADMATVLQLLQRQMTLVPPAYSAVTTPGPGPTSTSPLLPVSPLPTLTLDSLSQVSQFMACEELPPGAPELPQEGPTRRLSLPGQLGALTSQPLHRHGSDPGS
Chain of Beta-galactosidase (Q8VNN2 whole entry): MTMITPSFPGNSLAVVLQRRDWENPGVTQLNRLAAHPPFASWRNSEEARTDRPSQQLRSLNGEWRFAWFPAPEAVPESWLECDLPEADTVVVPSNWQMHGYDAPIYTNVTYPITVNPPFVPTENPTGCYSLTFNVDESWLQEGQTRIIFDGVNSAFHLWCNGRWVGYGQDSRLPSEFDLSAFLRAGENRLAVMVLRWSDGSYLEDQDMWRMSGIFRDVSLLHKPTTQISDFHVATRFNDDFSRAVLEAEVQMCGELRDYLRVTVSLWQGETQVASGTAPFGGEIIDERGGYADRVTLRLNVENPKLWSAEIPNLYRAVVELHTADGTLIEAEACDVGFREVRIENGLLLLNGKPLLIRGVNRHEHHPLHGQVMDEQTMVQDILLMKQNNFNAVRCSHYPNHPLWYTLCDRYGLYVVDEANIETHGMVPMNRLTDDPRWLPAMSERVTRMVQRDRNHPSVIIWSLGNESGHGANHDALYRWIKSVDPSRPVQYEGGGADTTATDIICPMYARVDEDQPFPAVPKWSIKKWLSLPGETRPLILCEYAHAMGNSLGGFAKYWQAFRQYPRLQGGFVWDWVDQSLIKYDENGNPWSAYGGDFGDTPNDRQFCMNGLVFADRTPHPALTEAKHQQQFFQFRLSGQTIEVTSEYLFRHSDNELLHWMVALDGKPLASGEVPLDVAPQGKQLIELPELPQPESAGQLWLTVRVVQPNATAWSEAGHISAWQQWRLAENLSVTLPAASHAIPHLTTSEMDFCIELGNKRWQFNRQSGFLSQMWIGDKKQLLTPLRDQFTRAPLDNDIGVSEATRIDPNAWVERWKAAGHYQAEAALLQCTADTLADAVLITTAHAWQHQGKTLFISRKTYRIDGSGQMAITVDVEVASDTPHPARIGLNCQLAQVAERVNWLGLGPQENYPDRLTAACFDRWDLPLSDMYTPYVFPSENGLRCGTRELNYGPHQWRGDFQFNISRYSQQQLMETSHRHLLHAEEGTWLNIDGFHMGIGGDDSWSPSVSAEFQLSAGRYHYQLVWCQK
Chain of Cytochrome P450 2D6 (P10635 whole entry): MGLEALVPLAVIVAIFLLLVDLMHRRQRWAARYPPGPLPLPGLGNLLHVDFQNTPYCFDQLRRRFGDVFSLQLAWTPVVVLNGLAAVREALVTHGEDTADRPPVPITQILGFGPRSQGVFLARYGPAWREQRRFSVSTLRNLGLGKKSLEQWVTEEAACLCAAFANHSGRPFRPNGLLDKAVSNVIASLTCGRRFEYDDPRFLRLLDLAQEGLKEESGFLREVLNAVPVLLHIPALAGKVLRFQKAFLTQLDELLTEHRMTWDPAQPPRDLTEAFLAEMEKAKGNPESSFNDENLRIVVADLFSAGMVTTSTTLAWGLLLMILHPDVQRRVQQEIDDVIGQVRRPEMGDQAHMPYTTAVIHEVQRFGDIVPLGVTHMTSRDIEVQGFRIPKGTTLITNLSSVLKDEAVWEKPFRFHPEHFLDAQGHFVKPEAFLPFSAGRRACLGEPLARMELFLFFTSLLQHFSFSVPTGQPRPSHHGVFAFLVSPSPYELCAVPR
Chain of Glyceraldehyde-3-phosphate dehydrogenase (P04406 whole entry): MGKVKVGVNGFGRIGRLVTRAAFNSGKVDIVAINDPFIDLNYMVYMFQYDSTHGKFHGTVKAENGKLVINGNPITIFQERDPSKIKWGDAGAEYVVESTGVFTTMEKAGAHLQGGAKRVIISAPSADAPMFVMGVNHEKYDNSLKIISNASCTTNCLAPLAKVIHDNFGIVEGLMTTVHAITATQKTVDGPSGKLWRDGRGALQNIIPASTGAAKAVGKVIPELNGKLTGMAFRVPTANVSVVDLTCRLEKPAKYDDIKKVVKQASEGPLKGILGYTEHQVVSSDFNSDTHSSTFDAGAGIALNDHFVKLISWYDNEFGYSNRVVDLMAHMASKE

For the compound `O=c1oc(Cl)c(Cl)c2ccccc12`, the AC50 on Cytochrome P450 2C19 is 25.1 µM (inconclusive); on Cytochrome P450 2D6, 31.6 µM (inconclusive); in test [1], 2.82 µM (inconclusive).
Consider `CCC(=O)/C=C/C1C(C)=CCCC1(C)C` (stereo not given), for which the figures for the half-maximal activity concentration (AC50) (on Cytochrome P450 3A4; in test [1]) were 31.6 µM (inconclusive) and 39.8 µM (inconclusive), respectively.
In the case of `COc1ccc(-[n+]2cc(-c3ccc(C)cc3)n3c2SCC3)cc1`, the IC50 in test [2] is 7.65 µM (active); in test [6], > 80 µM (inactive). The EC50 in test [3] is 1.17 µM (active); in test [4] it was > 60 µM (not active); in test [5], > 150 µM (inactive); in [8], > 150 µM (inactive); in test [9] it was 0.318 µM (active); in test [10], > 180 µM (inactive). Further, the results for the AC50 (with INS1; in test [7]) were 1.12 µM (active) and 2.91 µM (active), respectively.
Regarding `CCC1CCCCN1CC(=O)c1ccc(OC(F)F)cc1` (stereo not given), on Beta-galactosidase, the EC50 is > 40 µM (inactive). Besides, the half-inhibitory concentration (IC50) in test [11] was > 40 µM (not active).
Consider `C[C@]12CC[C@H](O)C[C@@H]1CC[C@@H]1[C@@H]2CC[C@]2(C)C(=O)CC[C@@H]12` [EPIANDROSTERONE], for which the concentration for a half-maximal effect (EC50) in test [3] was 877 nM (active) and 1.15 µM (active); in test [8], 24.2 µM (active); in test [10], > 180 µM (inactive). The AC50 at Cytochrome P450 3A4 was 20 µM (inconclusive).
For the compound `O=C(Cc1cccs1)Nc1ccon1`, the IC50 in [12] is 27.4 µM (active); in [13] it was > 100 µM (inactive); in test [14] it was > 100 µM (inactive); in test [15], > 100 µM (not active).

The record behind these values is ChEMBL document CHEMBL1201862, “PubChem BioAssay data set” (2004).
